Test results from PMC11222350, “Preclinical evaluation of [^18F]FP-CIT, the radiotracer targeting dopamine transporter for diagnosing Parkinson’s disease: pharmacokinetic and efficacy analysis” (EJNMMI Research, 2024).
Values joined by “and” are separate entries in the source; they are usually repeats but may differ in a detail not shown here. Equal entries are not always repeated.

How the values were obtained:
[1] = Excretion study of [^18F]FP-CIT in urine and feces of normal mice; format: in vivo, C57BL/6 mice
Protocol: For excretion analysis, male C57BL/6 mice (group II) were injected with 37 MBq of [^18F]FP-CIT in the same way described above. The mice were kept in separate cages for urine and feces collection at different time points (1, 2, 3, 4, 5, and 6 h after injection; n = 6 each). Six pieces of absorbent paper were placed in the cages to ensure that all urine samples were absorbed into the paper when the test animals excreted the urine. Fecal samples were collected using felt. The urine remaining in the bladder was collected using a syringe after the mice were sacrificed at the endpoints. The samples collected at each time point were measured using a dose calibrator (CRC-127R; Capintec, Florham Park, NJ, USA). Decay correction of the radioactivity indicated on the dose calibrator at the relevant time points was performed.

[2] = molecular target: T1, dopamine transporter (Rattus norvegicus, UniProt P23977); assay: Animal PET/CT imaging of [^18F]FP-CIT in the 6-OHDA-induced rat model; format: in vivo, Sprague–Dawley rats; conditions: for SUV of lesion site uptake: 37 MBq i.v.
T1 construct: from tissue; host or cells: striatum of living Sprague-Dawley rats (in vivo PET/CT)
Protocol: We induced the PD model in rats using 6-OHDA according to a previous study. Briefly, female Sprague–Dawley rats (group IV) were intraperitoneally pretreated with desipramine […] (12.5 mg/kg; 12.5 mg/mL). The rats were anesthetized with 3% isoflurane in oxygen, had their heads shaved, and were placed in a stereotactic frame. A lesion in the right striatum was induced by 6-OHDA injection (4 μg/μL, 2 μL/site in 0.2% ascorbic acid) into four coordinate sites (anterior–posterior (AP) + 1.3, + 0.4, − 0.4, and − 1.3 mm; medial–lateral (ML) − 2.6, − 3.0, − 4.2, and − 4.5 mm; and dorsal–ventral (DV) − 5.0 mm) using a 26G Hamilton syringe at a rate of 1 μL/min (n = 3). The syringe was withdrawn slowly 5 min after the injection, and the wound was sutured. The surgical procedure in the sham group was also performed in the same manner using […] in normal saline instead of 6-OHDA (n = 3). All of the rats were randomly assigned to PD and sham model groups.
To evaluate the uptake targeting efficacy in the striatum, animal PET/CT imaging of [^18F]FP-CIT was performed in the same week following the behavioral tests on the group IV 6-OHDA PD model (PD model and sham model, n = 3 per group). PET/CT images were acquired using nanoScan® PET/CT (Mediso Medical Imaging Systems, Budapest, Hungary). PET image acquisition was performed as previously described. Rats were anesthetized with 2% isoflurane in oxygen, and 37 MBq of [^18F]FP-CIT in 1 mL of saline was intravenously injected via the tail vein using a syringe pump (Pump Elite 11, Harvard Apparatus, USA) over 1 min. Dynamic PET scanning was performed for 60 min with 24 frames ([…], 3 × 60, 4 × 300, and 3 × 600 s). Image scans were acquired in the energy window of 400–600 keV. All images were reconstructed using a three-dimensional ordered subset expectation maximization (3D-OSEM) algorithm with four iterations and six subsets. For attenuation correction and anatomical reference, CT imaging was performed immediately after PET using a 50 kVp of X-ray voltage with 0.16 mAs.
To define the anatomical volumes of interest (VOIs), MR scans were obtained on a 31 cm horizontal-bore Agilent 9.4T scanner (Agilent Technologies, Santa Clara, CA, USA) using a 4-channel array mouse head surface coil following PET/CT imaging (Rapid Biomedical GmbH, Rimpar, Germany) (PD model and sham model, n = 3 each). […] The respiratory rates of the rats were monitored using an MR-compatible physiological monitoring and gating system during image acquisition (SA Instruments Inc., USA).
Each PET image was co-registered with the raw MR image to compare the regional [^18F]FP-CIT uptake in the striatum. […] The obtained uptake value, represented as the standardized uptake value (SUV), was determined for each VOI. […]

[3] = molecular target: T1, dopamine transporter; assay: Correlation between [^18F]FP-CIT PET uptake and tyrosine hydroxylase IHC; format: in vivo, Sprague–Dawley rats; conditions: Pearson
Protocol: After MR and PET/CT studies, group IV rats were anesthetized with 3.5% isoflurane and fixed by intracardial perfusion with 0.9% saline, followed by 4% paraformaldehyde, replacing the blood in the brain. The brains were extracted and post-fixed in 4% paraformaldehyde overnight at 4 °C. Subsequently, the samples were transferred to 30% sucrose at 4 °C until they sank to the bottom. Cryoprotected brains were embedded in optimal cutting temperature compound (Tissue-Tek; Sakura, Torrance, CA, USA) and sectioned in the coronal plane using a microtome (CM1950; Leica, Wetzlar, Germany) at a thickness of 30 μm. Free-floating brain sections were rinsed with PBS, treated with 3% hydrogen peroxide for 30 min, and then washed with PBS again. Sections were permeabilized with 0.3% Trioton-X-100 for 30 min and washed with PBS. […]
IHC slide imaging was performed using a slide scanner (MoticEasyScan Pro 6; Motic, Kowloon, Hong Kong). The intensity of TH antibody binding was quantified by delineating regions of interest (ROI) for positive lesion and intact sites on the IHC images using ImageJ software. An average of four slides for each brain sample was analyzed. […]
The correlation between [^18F]FP-CIT uptake and TH intensity was assessed, considering absolute values for each lesion and intact site in the striatum. Additionally, lesion/intact ratio values for each study were calculated and analyzed. […]

[4] = system: dopamine transporter; conditions: PET scanning; cited from earlier work

T1 sequence (P23977 whole entry): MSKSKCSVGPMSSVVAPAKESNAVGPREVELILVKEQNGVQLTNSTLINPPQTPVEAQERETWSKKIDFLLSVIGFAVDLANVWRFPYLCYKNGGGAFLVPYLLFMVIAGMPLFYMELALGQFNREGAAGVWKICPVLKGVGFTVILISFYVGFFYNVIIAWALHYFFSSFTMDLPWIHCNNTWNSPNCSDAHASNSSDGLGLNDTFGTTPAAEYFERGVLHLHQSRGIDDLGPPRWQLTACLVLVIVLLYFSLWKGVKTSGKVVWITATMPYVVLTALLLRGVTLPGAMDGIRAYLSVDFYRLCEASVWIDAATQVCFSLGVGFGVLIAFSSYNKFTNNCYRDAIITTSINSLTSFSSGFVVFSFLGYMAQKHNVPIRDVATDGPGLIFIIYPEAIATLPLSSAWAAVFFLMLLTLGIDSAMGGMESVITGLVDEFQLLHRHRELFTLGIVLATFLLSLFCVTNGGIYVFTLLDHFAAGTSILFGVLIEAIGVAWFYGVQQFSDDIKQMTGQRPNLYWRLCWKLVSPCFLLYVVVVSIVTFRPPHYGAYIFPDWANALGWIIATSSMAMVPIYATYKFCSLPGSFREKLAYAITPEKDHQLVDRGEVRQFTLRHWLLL

COC(=O)[C@H]1[C@@H](c2ccc(I)cc2)C[C@@H]2CC[C@H]1N2CCCF [[^18F]FP-CIT, N-(3-fluoropropyl)-2β-carboxymethoxy-3β-(4-iodophenyl) nortropane]
Accumulated excretion radioactivity (Decay corrected) ([1]; 1 h, Mean ± SD of 6 mice (group II)): 0.03 ± 0.04 mCi | Accumulated excretion radioactivity (Decay corrected) ([1]; 1 h, individual mice no. 1-6 (group II), 37 MBq i.v.): 0.00 mCi and 0.01 mCi and 0.10 mCi and 0.03 mCi and 0.02 mCi | Accumulated excretion radioactivity (Decay corrected) ([1]; 2 h, Mean ± SD of 6 mice (group II)): 0.05 ± 0.04 mCi | Accumulated excretion radioactivity (Decay corrected) ([1]; 2 h, individual mice no. 1-6 (group II), 37 MBq i.v.): 0.07 mCi and 0.01 mCi and 0.11 mCi and 0.02 mCi and 0.05 mCi | Accumulated excretion radioactivity (Decay corrected) ([1]; 3 h, Mean ± SD of 6 mice (group II)): 0.06 ± 0.05 mCi | Accumulated excretion radioactivity (Decay corrected) ([1]; 3 h, individual mice no. 1-6 (group II), 37 MBq i.v.): 0.07 mCi and 0.01 mCi and 0.15 mCi and 0.02 mCi and 0.08 mCi and 0.05 mCi | Accumulated excretion radioactivity (Decay corrected) ([1]; 4 h, Mean ± SD of 6 mice (group II)): 0.08 ± 0.06 mCi | Accumulated excretion radioactivity (Decay corrected) ([1]; 4 h, individual mice no. 1-6 (group II), 37 MBq i.v.): 0.11 mCi and 0.01 mCi and 0.16 mCi and 0.02 mCi and 0.09 mCi and 0.08 mCi | Accumulated excretion radioactivity (Decay corrected) ([1]; 5 h, Mean ± SD of 6 mice (group II)): 0.09 ± 0.05 mCi | Accumulated excretion radioactivity (Decay corrected) ([1]; 5 h, individual mice no. 1-6 (group II), 37 MBq i.v.): 0.11 mCi and 0.04 mCi and 0.17 mCi and 0.02 mCi and 0.09 mCi and 0.08 mCi | Accumulated excretion radioactivity (Decay corrected) ([1]; 6 h, Mean ± SD of 6 mice (group II)): 0.09 ± 0.05 mCi | Accumulated excretion radioactivity (Decay corrected) ([1]; 6 h, individual mice no. 1-6 (group II), 37 MBq i.v.): 0.12 mCi and 0.04 mCi and 0.17 mCi and 0.02 mCi and 0.10 mCi | Excretion ratio ([1]; till 6 h, individual mice no. 1-6 (group II)): 26.99% and 14.17% and 31.89% and 6.20% and 22.94% and 26.58% | time at which transient equilibrium tendency appeared in TACs ([2]; intact striatum, post-injection): approximately 5 min | reduction of lesion site SUV, PD group vs sham group ([2]; striatum lesion site): 55.4% | SUV of lesion site uptake ([2]; striatum lesion site, PD group (6-OHDA)): 1.85 ± 0.13 | SUV of lesion site uptake ([2]; striatum lesion site, sham group): 4.15 ± 0.86 | correlation coefficient (R) between animal PET/CT uptake and TH intensity by IHC, absolute values ([3]; each lesion and intact site in the striatum, n = 12): 0.803 | correlation coefficient (R) between animal PET/CT uptake and TH intensity by IHC, lesion/intact ratio values ([3]; n = 6): 0.973 | time of transient equilibrium in time activity curves (specific binding to the striatum) [4]: 60 to 100 min
